Assay results published in patent US20150291547A1, “SMALL MOLECULES FOR EXTENDING THE WELL BEING OF CELLS AND METHODS OF USE THEREOF” (NANYANG POLYTECHNIC, priority 2011, published 2015).

Assays:
[1] = tested on: hTERT promoter relative to CMV promoter; test: Specificity check: hTERT promoter relative to CMV promoter driven SEAP in HepG2 cells; type: cell-based, human; conditions: for Average phTERT/pCMV ratio: 20 μg/ml, 16 hours, ± SE, n = 3; for specificity in activating hTERT expression: judged from average phTERT/pCMV ratio
Protocol: (§1) “SEAP” stands for secreted alkaline phosphatase enzyme. SEAP was used as a reporter system to monitor the transcriptional activity of hTERT. Here, about 10,000 cells per well were grown in 96-well plates and incubated at 37° C. for 22 hours. Varying types and amounts of natural compounds were added and cells were incubated for another 16 hours. Culture media were collected and heated at 65° C. for 10 mins to inactivate heat labile phosphatases. An equal amount of SEAP buffer (2M diethanolamine, 1 mM MgCl2, and 20 mM L-homoarginine), was added to the media and p-nitrophenyl phosphate was added to a final concentration of 12 mM. Absorbance at 405 nm was taken, and the percentage change in absorbance was calculated.
(§2) One of the plasmids contains the 5′ upstream hTERT promoter region followed by the reporter gene, the SEAP gene, while the other plasmid contains the CMV promoter region controlling the expression of the SEAP gene.
(§3) Each plasmid was then individually transfected into HepG2 cells and stable cells lines were established by selection on G418 (1 mg/ml). Stable clones of from each plasmid transfected cell line was established and each clone was propagated and preserved under liquid nitrogen for long term storage prior to use
(§4) The newly established HepG2-pTERT-SEAP and HepG2-pCMV-SEAP stable cell lines were then used for screening for inhibitors or activators of human telomerase expression.
HepG2-pCMV-SEAP serves as a positive control to ensure that SEAP is always secreted by cells harbouring this plasmid. It also serves as a specificity control as any small molecules that stimulate or inhibit only telomerase expression identified using the HepG2-pTERT-SEAP cells screening should show little to no increase in SEAP activity.
HepG2-phTERT-SEAP cells were grown for 22 hours in M199 medium supplemented with 10% FBS. The three compounds (20 μg/ml) specified above were then added and incubated for another 16 hours. After 16 hours, SEAP assay was conducted in accordance to the protocol described by Huang et al. (2003). Concurrently, HepG2-pCMV-SEAP cells were also subjected to the compounds and results were also collected. The results obtained were as shown in Table 1 below which indicate the change in hTERT expression from n=3 independent experiments.

[2] = tested on: hTERT expression (hTERT promoter); test: HepG2-phTERT-SEAP reporter assay (SEAP activity as measure of hTERT expression); type: cell-based, human; conditions: for increase in hTERT expression: 16 hours; for average increase in hTERT expression: 20 μg/ml, 16 hours incubation, HepG2-hTERT reporter cell line, n=5 (FIG. 1)
Protocol: NPL which consists of a total of 480 different pure natural product compounds.
as §1
An increase in SEAP activity detected via the utilization of a substrate, translates to an increase in hTERT expression.
Cell lines suitable for use in the assay were prepared from ATTC No. HB-8065 Hep G2 (Hepatocellular carcinoma, human). The Hep G2 cell line was isolated from a liver biopsy of a person with a well differentiated hepatocellular carcinoma. These cells are epithelial in morphology. These cells secrete a variety of major plasma proteins e.g., alpha-fetoprotein (alpha fetoprotein); albumin; alpha2 macroglobulin (alpha-2-macroglobulin); alpha1 antitrypsin (alpha-1-antitrypsin); transferrin; alpha1 antichymotrypsin; (alpha-1-antichymotrypsin); haptoglobin; ceruloplasmin; plasminogen; complement (C4); C3 activator; fibrinogen; alpha1 acid glycoprotein (alpha-1 acid glycoprotein); alpha2 HS glycoprotein (alpha-2-HS-glycoprotein); beta lipoprotein (beta-lipoprotein); retinol binding protein (retinol-binding protein). The cells are also responsive to stimulation with human growth hormone. HepG2 cells and its derivatives are commonly used as a model system for studies of liver metabolism and toxicity of xenobiotics, the detection of cytoprotective, anti (environmental and dietary) genotoxic and cogenotoxic agents, understanding hepatocarcinogenesis, and for drug targeting studies. HepG2 cells are also employed in trials with bio-artificial liver devices.
as §2, §3, §4
An increase in SEAP activity indicates an increase in hTERT expression and a decrease in SEAP activity indicates a decrease in hTERT expression.
HepG2-phTERT-SEAP cells were grown for 22 hours in M199 medium supplemented with 10% FBS. The three compounds, 7E (P1), 8H(P1) and 11E(P2) (20 μg/ml) specified above were added and incubated for another 16 hours. After 16 hours, SEAP assay was conducted in accordance to the protocol described by Huang et al. (2003).

[3] = 1.25ug/ml, above untreated cells
[4] = 20 ug/ml, vs 1% DMSO control wells
[5] = 100 ug/ml, vs 1% DMSO control wells

Row | Structure (SMILES) | Average phTERT/pCMV ratio [1] | specificity in activating hTERT expression [1] | increase in hTERT expression [2, 3] | average increase in hTERT expression [2] | increase in hTERT expression [2, 4] | increase in hTERT expression [2, 5]
1 | O=c1cc(-c2ccc(O)c(O)c2)oc2cc(O[C@@H]3O[C@H](CO)[C@@H](O)[C@H](O)[C@H]3O)cc(O)c12 [7E, Plate 1, 2-(3,4-dihydroxyphenyl)-5-hydroxy-7-[3,4,5-trihydroxy-6-(hydroxymethyl)(2H-3,4,5,6-tetrahydropyran-2-yloxy)]chromen-4-one] | 1.08 ± 0.04 | only mildly specific | 12.3% | 29.42% | 34.7% | 167.0%
2 | COc1cc2ccc(=O)oc2c(O)c1OCC=C(C)C [8H, Plate 1, 8-hydroxy-6-methoxy-7-(3-methylbut-2-enyloxy) chromen-2-one] | 2.16 ± 0.14 | highly specific | 8.1% | 49.76% | 39.5% | 139.5%
3 | COc1cc2ccc(=O)oc2cc1O [11E, Plate 2, 7-hydroxy-6-methoxychromen-2-one] | 2.01 ± 0.01 | highly specific | 4.3% | 57.99% | 54.2% | 225.8%
4 | Cc1ccc(C(=O)Nc2ccc(S(=O)(=O)O)c3cc(S(=O)(=O)O)cc(S(=O)(=O)O)c23)cc1NC(=O)c1cccc(NC(=O)Nc2cccc(C(=O)Nc3cc(C(=O)Nc4ccc(S(=O)(=O)O)c5cc(S(=O)(=O)O)cc(S(=O)(=O)O)c45)ccc3C)c2)c1 [Suramin, reference compound] | 1.16 ± 0.11 |  |  |  |  | 
